# What was measured:
# Human corona virus = experiment: Broad spectrum antiviral activity, HEL cells; type: cell-based
# PBMCs [1] = tested on: PBMCs
# [2] = tested on: Herpes simplex virus-1 TK KOS ACV; experiment: Broad spectrum antiviral activity, HEL cells; type: cell-based; conditions: Human alphaherpesvirus 1, HEL
# Hepatitis C virus (Jc1) = experiment: Broad spectrum antiviral activity, Huh 7-D cells; type: cell-based
# PBMCs [3] = type: cell-based, human
# Experimental: To measure apoptosis, PBMCs were incubated with or without drugs in a 96-well round bottom plate at 2 × 10^5/200 μL/well. After 2 days, cells were washed with PBS and stained with 2.5 μL Annexin-V-APC (Biosciences, Aalst, Belgium) in 100 μL staining buffer containing 10 mmol/L HEPES pH7.4, 140 mmol/L NaCl, and 2.5 mmol/L CaCl2 for 20 min at room temperature in dark. Cells were then washed with staining buffer and incubated with 100 μL 0.1 μg/mL propidium iodide (PI) (Thermo Fisher, Asse, Belgium) for 5 min at room temperature in dark. Stained cells were measured by flow cytometry (FACSCanto, BD, Aalst, Belgium).
# HIV-1 = conditions: read-out: IC50 HIV-1 replication; ref Clouser et al. [24]; cited from earlier work
# [4] = tested on: Influenza A/H1N1 A/Ned/378/05; experiment: Broad spectrum antiviral activity, MDCK cells; type: cell-based; conditions: Influenza A virus
# [5] = tested on: Feline corona virus (FIPV); experiment: Broad spectrum antiviral activity, CRFK cells; type: cell-based; conditions: Alphacoronavirus 1
# CD4 = molecular target: T1, CD4 (Homo sapiens, UniProt P01730); experiment: Binding competition with anti-CD4 antibodies; conditions: antibodies OKT4 and RPA-T4, U373-CD4-CXCR4/CCR5 cells
# T1 construct: host or cells: U373-CD4-CXCR4 and U373-CD4-CCR5 cells
# Experimental: (§1) Binding competition between increasing concentrations of compounds and FITC-conjugated mouse anti-human CD4 clone RPA-4 (Biolegend, Amsterdam, Netherlands), PE-conjugated mouse anti-Human CXCR4 clone 12G5, and PE-conjugated mouse anti-human CCR5 clone 2D7 (BD Pharma, Aalst, Belgium) to U373-CD4-CXCR4 and U373-CD4-CCR5 cells was first tested by flow cytometry (FACSCanto). […] After 1 h of incubation at 4 °C, cells were washed with FACS buffer (1% bovine serum albumin, 0.1% N3Na in PBS, Sigma), and Mean Fluorescence Intensity (MFI) was measured. […] Internalization was stopped after 30 min by addition of NaN3 (0.1%) on ice. Cells were stained with anti-human CXCR4 clone 4G10 (BD, Belgium) or anti-human CCR5 (CD195) clone T21/8, (eBioscience, Asse, Belgium), Near-IR fluorescent reactive dye during 1 h at 4 °C, washed with FACS buffer, and a secondary PE-conjugated goat anti-mouse antibody (Jackson ImmunoResearch, West Grove, PA, USA).
# [6] = tested on: pseudotype virus pNL4.3ΔEnvLuc-HXB2; experiment: microbe, parasite or virus in culture; conditions: Human immunodeficiency virus 1, HXB2, read-out: IC50 HIV-1 entry
# CCR5 = molecular target: T2, CCR5 (Homo sapiens, UniProt P51681); experiment: Binding competition with anti-CCR5 antibody 2D7; conditions: anti-CCR5 antibody 2D7, U373-CD4-CCR5 cells
# T2 construct: host or cells: U373-CD4-CCR5 cells
# T2 sequence (P51681 whole entry): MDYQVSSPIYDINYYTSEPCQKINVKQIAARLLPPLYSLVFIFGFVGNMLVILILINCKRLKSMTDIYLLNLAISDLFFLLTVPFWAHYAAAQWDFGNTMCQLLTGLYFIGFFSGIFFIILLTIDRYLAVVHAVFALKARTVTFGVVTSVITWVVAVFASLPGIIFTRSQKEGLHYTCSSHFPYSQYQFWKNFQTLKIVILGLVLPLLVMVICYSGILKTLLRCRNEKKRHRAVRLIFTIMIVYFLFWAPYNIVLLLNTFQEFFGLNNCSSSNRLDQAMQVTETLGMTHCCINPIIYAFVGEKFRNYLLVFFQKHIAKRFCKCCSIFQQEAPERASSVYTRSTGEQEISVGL
# Experimental: as §1
structure (smiles),measurement,setting,value
"Oc1cc(O)cc(/C=C/c2ccc(O)c(O)c2)c1 [piceatannol, trans-3,3′,4,5′-tetrahydroxystilbene]",IC50,Human corona virus,> 100 µM
same,Effect on expression of CD25 and CD69,PBMCs [1],did not have any effect
same,IC50,[2],45.4 ± 4 µM
same,IC50,Hepatitis C virus (Jc1),> 100 µM
same,Induction of apoptosis in PBMCs,PBMCs [3],did not induce any apoptosis
same,IC50,HIV-1,21.4 µM
same,IC50,[4],> 100 µM
same,IC50,[5],> 100 µM
same,Inhibition of anti-CD4 antibodies binding to CD4,CD4,neither CE nor piceatannol did
same,IC50,[6],10.3 ± 5.74 µM
same,Inhibition of CCR5 binding,CCR5,neither CE nor piceatannol did

# — PMC8126241, “Active Components from Cassia abbreviata Prevent HIV-1 Entry by Distinct Mechanisms of Action” (International Journal of Molecular Sciences, 2021)
